Data published in patent publication US20130071936A1, “FRET-BASED ZINC(II) ION INDICATOR” (The Florida State University Research Foundation, Inc., priority 2011, published 2013).

Tests used:
[1] = Fluorescence titration with ZnCl2 in aqueous/organic mixed solvent (1:9 MOPS buffer pH 7.2/CH3CN); format: binding; details: λex 400 nm
Method: FIG. 9 is a graph depicting emission spectra for the titration of zinc(II) ion indicator (4) (2.5 μM) with ZnCl2 (0-22 μM) in water-CH3CN (1:9) mixture (MOPES buffer, 10 mM, pH=7.2, λex=400 nm).
The titration experiments using zinc(II) ion indicator (4) were also carried out in an aqueous/organic mixed solvent (1:9 MOPS buffer (pH 7.2)/CH3CN). […] (FIG. 9). Comparing to the observations in CH3CN, the fluorescence is rather dim. The loss of fluorescence can be explained by the hydrogen bonding interaction between the protic solvent and the carbonyl groups on NDI, which provides a non-radiative deactivation pathway. See F. Würthner, S. Ahmed, C. Thalacker and T. Debaerdemaeker, Chem. Eur. J., 2002, 8, 4742. […] By extension, the fluorescence of zinc(II) ion indicators (4) and (5) would not be affected by the fluctuations of pH within the physiological range.

[2] = test system: mitochondria of HeLa (S3) cells transfected with mCerulean3 TOMM-20; test: Colocalization by confocal fluorescence microscopy with mCerulean3 TOMM-20; format: cell-based
Method: FIGS. 13A through 13F are confocal fluorescence images of living HeLa (S3) cells transfected with mCerulean3 TOMM-20 that were incubated with zinc(II) ion indicator (5) (1.8 μM, A-C) and zinc(II) ion indicator (4) (6.0 μM, D-F) for 30 min. FIGS. 13A (zinc(II) ion indicator (5)) and 13D (zinc(II) ion indicator (4)) depict the green channel, λex 405 nm, λem 425-475 nm. FIGS. 13B (zinc(II) ion indicator (5)) and 13E (zinc(II) ion indicator (4)) depict the red channel, λex 543 nm, λem 580-680 nm. FIGS. 13C (zinc(II) ion indicator (5)) and 13F (zinc(II) ion indicator (4)) depict the merged image. Scale bar: 10 μm.
FIGS. 14A through 14F are confocal fluorescence images of live HeLa (S3) cells transfected with mCer3 TOMM20 that were incubated with FRET acceptor compound (3) (9.0 μM, A-C) and FRET acceptor compound (2) (52 μM, D-F) for 30 min. FIGS. 14A (FRET acceptor compound (3)) and 14D (FRET acceptor compound (2)) depict the green channel, λex 405 nm, λem 425-475 nm. FIGS. 14B (FRET acceptor compound (3)) and […] (FRET acceptor compound (2)) depict the red channel, λex 543 nm, λem 580-680 nm. FIGS. 14C (FRET acceptor compound (3)) and […] (FRET acceptor compound (2)) depict the merged image. Scale bar: 10 μm.
The colocalization properties of red-emitting compounds (2-5) were studied using HeLa (S3) cells transfected with mCerulean3 TOMM-20, a cyan fluorescent protein (CFP) fused with a mitochondrial targeting sequence whose emission is shown in the green channel. See FIG. 13A for emission spectrum from cells incubated with TPP-containing zinc(II) ion indicator (5), and see FIG. 13D for emission spectrum from cells incubated with zinc(II) ion indicator (4). […] The overall intracellular fluorescence intensity from zinc(II) ion indicator (4) is low, which is consistent with the observed weak fluorescence of the NDI fluorophore in aqueous solutions.
The localization properties of (2-5) were determined via costaining experiments using mCerulean3 TOMM-20, a mitochondrial-specific fusion of the cyan fluorescent protein (CFP) mCerulean3. mCerulean3 is a bright monomeric FP with an emission maximum of 475 nm. HeLa S3 cells were seeded onto Bioptechs Delta-T dishes 48 h prior to experimentation, then transfected about 24 h prior to loading the indicator using an Effectene Transfection Reagent Kit (Qiagen) and 1 μg of DNA. A 1:1 mixture of Dulbecco's modified Eagle's medium and Ham's F-12 (Invitrogen) supplemented with 12.5% fetal bovine serum was used as the culture medium. On the day of experimentation cells were rinsed twice with media and incubated with indicator 5 (1.8 μM) for 30 min. Prior to imaging cells were again rinsed twice with media, then provided with 1 mL of fresh media.
All cells were imaged using an Olympus Fluoview FV1000 confocal laser scanning microscope with an Olympus PLAPO 60× oil-immersion objective (NA=1.4). During experimentation cells were maintained at 37° C. and 5.0% CO2 using a Bioptechs Delta T4 Culture Dish Controller. Individual cells were imaged sequentially in two channels, using a 543 nm Helium-Neon laser line to excite the indicator and a 405 nm diode laser line to excite the FP. Cells were selected by the quality of FP expression, as the indicators tended to load homogenously into the cells. All data was collected using FluoView Software (Olympus). Laser power and detection settings were optimized for each image to fill LUTs. A pinhole size of 200 μm was used for each image. […]

[3] = Fluorescence response to various metal ions (metal ion selectivity); details: indicator 3.0 μM, 1:9 water/CH3CN pH 7.2, λex 400 nm
Method: FIG. 8 is a chart depicting fluorescence spectroscopic responses of zinc(II) ion indicator (4) (3.0 μM, λex 400 nm) to various metal ions in 1:9 water/CH3CN mixture at pH 7.2 (30 mM of MOPS buffer). Clear bars represent intensity in the presence of various metal ions (perchlorate salt). Metal ion concentrations of Na^+, K^+, Ca^2+, Mg^2+ were 1.0 mM and for other ions 30 μM. Hatch marked bars represent the fluorescence following subsequent addition of Zn(ClO4)2 (30 μM).
The fluorescence dependence of zinc(II) ion indicator (4) on the identity of metal ion was evaluated (FIG. 8). […] The observed metal ion selectivity can be understood based on the Irving-Williams series and HSAB theory.

For `COCCCNc1cc2c3c(c(NCCOc4ccc(/C=C/c5ccc(-c6ccc(COCCOCCOC)cn6)nc5)cc4)cc4c3c1C(=O)N(CCCOC)C4=O)C(=O)N(CCCOC)C2=O` [Compound (4)], the “fluorescence enhancement on increasing [Zn^2+]” value [1] was 3 fold, the intracellular appearance ([2]; 6.0 μM, 30 min) was “forms particulates intracellularly” and the “colocalization with mitochondrial CFP (mCerulean3 TOMM-20)” value ([2]; 30 min incubation, (5) 1.8 μM, (4) 6.0 μM, (3) 9.0 μM, (2) 52 μM) was “poor colocalization with the CFP”. The “overall intracellular fluorescence intensity” value ([2]; red channel λex 543 nm, λem 580-680 nm) was “low”, the “fluorescence response to cadmium(II)” value ([3]; 30 μM metal ion) was “acts similarly to zinc(II) in resulting strong fluorescence from NDI” and the “fluorescence response to iron(II) and copper(II)” value ([3]; 30 μM metal ion) was “quench fluorescence”. For the same molecule, the “fluorescence response to manganese(II) and lead(II)” value ([3]; 30 μM metal ion) was “fail to alter the fluorescence” and the “fluorescence response to alkali and alkaline earth metal ions” value ([3]; Na+, K+, Ca2+, Mg2+ 1.0 mM) was “do not elicit a fluorescence response”.
